From patent US9051279B2, “Substituted isoquinolinones and quinazolinones” (Novartis AG, priority 2009, dated 2015) come the findings set out here.

A short description of the series: Solubility and stability of crystalline sulphate salt form I compared to free base amorphous form. As to conditions: compared to the free base amorphous form. The format is physicochemical.

For `COc1cc2c(cc1OC(C)C)[C@H](c1ccc(Cl)cc1)N(c1ccc(N(C)C[C@H]3CC[C@H](N4CCN(C)C(=O)C4)CC3)cc1)C(=O)C2.O=S(=O)(O)O` [(S)-1-(4-Chloro-phenyl)-7-isopropoxy-6-methoxy-2-(4-{methyl-[4-(4-methyl-3-oxo-piperazin-1-yl)-trans-cyclohexylmethyl]-amino}-phenyl)-1,4-dihydro-2H-isoquinolin-3-one sulphate salt], the solubility result was “improvements” and the stability result is “improvements”.
